PMC11999338, “Factor XI localization in human deep venous thrombus and function of activated factor XI on venous thrombus formation and hemostasis” (Research and Practice in Thrombosis and Haemostasis, 2025)
Entries after “also recorded” stand apart in the source; their conditions may differ.

Test system: thrombi on the collagen surface
Experiment: Ex vivo rabbit blood perfusion in flow chamber on collagen surface (70/s)
Format: cell-based
Conditions: rabbit blood 75 minutes after oral ONO-1600586 50 mg/kg or rivaroxaban 15 mg/kg, shear rate 70/s
Experimental: Blood from rabbits 75 minutes postadministration of a solvent as a control (n = 5), a FXIa inhibitor (ONO-1600586, 50 mg/kg, n = 5), or a FXa inhibitor (rivaroxaban, 15 mg/kg, n = 5) was collected using 21-gauge needles into plastic syringes containing corn trypsin inhibitor (Molecular Innovations; final concentration 20 μg/mL) and a specific FXa inhibitor, Arixtra (Organon Sanofi-Synthelabo, final concentration 6 μg/mL). Anticoagulated whole blood was stored at room temperature and used for perfusion studies within 1 hour of collection. Next, mepacrine (quinacrine dihydrochloride, Sigma-Aldrich, final concentration 5 μM) was added to the blood before perfusion for platelet labeling, which enables the visualization of platelet-surface interaction through epifluorescence videomicroscopy. Collagen from the horse tendon (Collagen Reagent HORM, Takeda Pharmaceutical, 20 μg/mL) was immobilized on glass coverslips (24 × 50 mm) in parallel-plate flow chambers, as previously described. Blood samples were perfused through the chamber using a syringe pump (KDS100, KD Scientific Inc) at a constant flow rate (15 mL/h) to achieve wall shear rates of 70/s. Platelets interacting with the immobilized collagen were visualized using an inverted stage epifluorescence microscope (IX71, OLYMPUS). Images were captured at 3, 6, and 9 minutes after perfusion with a photosensitive color CCD camera (DP70, Olympus), and surface covering areas were semiquantified using a morphometric analysis system (WinROOF, Mitani).
After perfusion, coverslips were immediately fixed in 95% alcohol for 1 hour at room temperature, stained using antibodies for fibrin (Millipore), and faintly counterstained with Meyer’s hematoxylin. […] Finally, the number of attached cells with multilobulated nuclei was counted as the neutrophil number in 5 fields under a 20× objective lens and expressed as the number of neutrophils per mm^2.

O=C(NC[C@H]1CN(c2ccc(N3CCOCC3=O)cc2)C(=O)O1)c1ccc(Cl)s1 [rivaroxaban]
fibrin formation (fibrin-immunopositive area) in the flow chamber: markedly decreased; also recorded: Absence or little fibrin formation | neutrophil attachment on the thrombus: did not affect | surface covering areas (3, 6, 9 minutes): did not differ
